# Assay results: patent publication US10358442B2, “2-homopiperazine-1-yl-4H-1,3-benzothiazine-4-one derivatives and process for the preparation of 2-(homo)piperazine 1,3-benzothiazine-4-one hydrochlorides” (Ecole Polytechnique Federale De Lausanne (EPFL), priority 2015, dated 2019)
# Tested on: M. tuberculosis NTB1
# Format: cell-based
row,SMILES,NTB1 MIC99
1,"CCCCCN1CCCN(c2nc(=O)c3cc(C(F)(F)F)cc([N+](=O)[O-])c3s2)CC1.Cl [Compound 2, 8-Nitro-2-(4-pentyl-1,4-diazepan-1-yl)-6-(trifluoromethyl)-4H-1,3-benzothiazin-4-one Hydrochloride]",>10 µg/mL
2,"CCCCCCN1CCCN(c2nc(=O)c3cc(C(F)(F)F)cc([N+](=O)[O-])c3s2)CC1.Cl [Compound 3, 2-(4-Hexyl-1,4-diazepan-1-yl)-8-nitro-6-(trifluoromethyl)-4H-1,3-benzothiazin-4-one Hydrochloride]",>10 µg/mL
3,"Cl.O=c1nc(N2CCCN(CCC3CCCCC3)CC2)sc2c([N+](=O)[O-])cc(C(F)(F)F)cc12 [Compound 4, 2-[4-(2-Cyclohexylethyl)-1,4-diazepan-1-yl]-8-nitro-6-(trifluoromethyl)-4H-1,3-benzothiazin-4-one Hydrochloride]",>10 µg/mL
4,"CCCCCCCN1CCCN(c2nc(=O)c3cc(C(F)(F)F)cc([N+](=O)[O-])c3s2)CC1.Cl [Compound 5, 2-(4-Heptyl-1,4-diazepan-1-yl)-8-nitro-6-(trifluoromethyl)-4H-1,3-benzothiazin-4-one Hydrochloride]",13.8 µg/mL
5,"Cl.O=c1nc(N2CCCN(C3CCCCC3)CC2)sc2c([N+](=O)[O-])cc(C(F)(F)F)cc12 [Compound 6, 2-(4-Cyclohexyl-1,4-diazepan-1-yl)-8-nitro-6-(trifluoromethyl)-4H-1,3-benzothiazin-4-one Hydrochloride]",50.5 µg/mL
6,"Cl.O=c1nc(N2CCCN(CCc3ccccc3)CC2)sc2c([N+](=O)[O-])cc(C(F)(F)F)cc12 [Compound 7, 8-Nitro-2-[4-(2-phenylethyl)-1,4-diazepan-1-yl]-6-(trifluoromethyl)-4H-1,3-benzothiazin-4-one Hydrochloride]",27.1 µg/mL
7,"O=c1nc(N2CCN(CC3CCCCC3)CC2)sc2c([N+](=O)[O-])cc(C(F)(F)F)cc12 [PBTZ169, 2-[4-(cyclohexylmethyl)piperazin-1-yl]-8-nitro-6-(trifluoromethyl)-4H-1,3-benzothiazin-4-one, reference compound]",>100 µg/mL
